Test results taken from patent publication US8293208B2, “Fluorinated fructose derivatives for PET imaging” (The Governors of the University of Alberta, priority 2009, dated 2012).

Columns and labels:
MDA-MB-231 cells [1] = assay: Inhibition of [14C]-D-glucose transport (hexose flux) in MDA-MB-231 cells; assay type: cell-based, human; settings: for Ki: [14C]-D-glucose
Experimental: (§1) Both MCF-7 and MDA-MB-231 cells (Gifts from Dr. David Murray, Cross Cancer Institute, Edmonton, Canada) were grown in a 37° C., 5% CO2 incubator, in Gibco® DMEM-F12 supplemented with 15 mM HEPES, L-glutamine, 10% fetal bovine serum and 1% penicillin/streptomycin with media renewal every 2 to 3 days. For cell flux studies, cells were grown to confluence in 12-well plates with media renewal every two days. Two hours before performing the flux experiment, the media was removed, and the cells washed twice with phosphate buffered saline solution (PBS). Glucose-free Krebs-Ringer solution was added to the wells (120 mM NaCl, 25 mM NaHCO3, 4 mM KCl, 1.2 mM KH2PO4, 2.5 mM MgSO4, 70 uM CaCl2, pH 7.4) to deprive the cells of nutrients and to set up a zero-trans experiment. After two hours, cells were removed from the incubator, and the respective experiments were performed. Radioactive “Hot” flux solutions were made up using the Krebs-Ringer solution previously mentioned and radiolabelled [^14C]-D-glucose (Amersham), [^14C]-D-fructose (Moravek Biochemicals), or [^14C]6FDF (proprietary) at a specific activity of approximately 1 μCi/ml. For determining background levels of radioactivity, a sodium reduced Krebs solution was made (70 mM NaCl, 25 mM NaHCO3, 4 mM KCl, 1.2 mM KH2PO4, 2.5 mM MgSO4, 70 μM CaCl2, pH 7.4) with the addition of either 100 mM D-glucose or 100 mM D-fructose to outcompete the binding sites of the specific GLUT transporters under examination. After applying the test flux solution, incubations lasted for 25 minutes, where the cells were then rinsed twice with ice-cold Krebs-Ringer to stop the transport, and then lysed using 500 μl 5% trichloracetic acid and left to sit on a shaker bed overnight. […] The vials were then placed in a Beckman™ LS 6500 multi-purpose liquid scintillation counter to be quantified. […]
(§2) All uptake values were corrected for their respective adhering extracellular substrate, and Ki values were determined using non-linear regression in GraphPad Prism™ 5 (GraphPad Software, Inc., La Jolla, Calif.). […]

MCF-7 cells [2] = assay: Inhibition of [14C]-D-fructose transport (hexose flux) in MCF-7 cells; assay type: cell-based, human
Experimental: (§3) Both MCF-7 and MDA-MB-231 cells (Gifts from Dr. David Murray, Cross Cancer Institute, Edmonton, Canada) were grown in a 37° C., 5% CO2 incubator, in Gibco® DMEM-F12 supplemented with 15 mM HEPES, L-glutamine, 10% fetal bovine serum and 1% penicillin/streptomycin with media renewal every 2 to 3 days. For cell flux studies, cells were grown to confluence in 12-well plates with media renewal every two days. Two hours before performing the flux experiment, the media was removed, and the cells washed twice with phosphate buffered saline solution (PBS). Glucose-free Krebs-Ringer solution was added to the wells (120 mM NaCl, 25 mM NaHCO3, 4 mM KCl, 1.2 mM KH2PO4, 2.5 mM MgSO4, 70 uM CaCl2, pH 7.4) to deprive the cells of nutrients and to set up a zero-trans experiment. After two hours, cells were removed from the incubator, and the respective experiments were performed. Radioactive “Hot” flux solutions were made up using the Krebs-Ringer solution previously mentioned and radiolabelled [^14C]-D-glucose (Amersham), [^14C]-D-fructose (Moravek Biochemicals), or [^14C]6FDF (proprietary) at a specific activity of approximately 1 μCi/ml. For determining background levels of radioactivity, a sodium reduced Krebs solution was made (70 mM NaCl, 25 mM NaHCO3, 4 mM KCl, 1.2 mM KH2PO4, 2.5 mM MgSO4, 70 μM CaCl2, pH 7.4) with the addition of either 100 mM D-glucose or 100 mM D-fructose to outcompete the binding sites of the specific GLUT transporters under examination. […] Three 150 μl samples from each well were placed into scintillation counter vials, and 4 ml of ScintiSafe™ liquid scintillation fluid (Fisher) was added. The vials were then placed in a Beckman™ LS 6500 multi-purpose liquid scintillation counter to be quantified. All counts were then normalized to standards and corrected for background accumulation of isotope.
(§4) All uptake values were corrected for their respective adhering extracellular substrate, and Ki values were determined using non-linear regression in GraphPad Prism™ 5 (GraphPad Software, Inc., La Jolla, Calif.). ANOVA analysis was also performed in GraphPad Prism™ 5.

MDA-MB-231 cells [3] = assay: Inhibition of [14C]-D-fructose transport (hexose flux) in MDA-MB-231 cells; assay type: cell-based, human
Experimental: as §3, §4

MCF-7 cells [4] = assay: Inhibition of [14C]-D-glucose transport (hexose flux) in MCF-7 cells; assay type: cell-based, human; settings: for Ki: [14C]-D-glucose
Experimental: as §1, §2

Storage stability = assay type: physicochemical; settings: prolonged storage
MCF-7 cells [5] = assay: [14C]-6-deoxy-6-fluoro-D-fructose uptake in MCF-7 cells; assay type: cell-based, human; settings: for uptake time course: 90 minute incubation, MCF-7, corrected for non-mediated hexose uptake
Experimental: as §3, §4

MDA-MB-231 cells [6] = assay: [14C]-6-deoxy-6-fluoro-D-fructose uptake in MDA-MB-231 cells; assay type: cell-based, human; settings: 90 minute incubation, MDA-MB-231, corrected for non-mediated hexose uptake
Experimental: Both MCF-7 and MDA-MB-231 cells (Gifts from Dr. David Murray, Cross Cancer Institute, Edmonton, Canada) were grown in a 37° C., 5% CO2 incubator, in Gibco® DMEM-F12 supplemented with 15 mM HEPES, L-glutamine, 10% fetal bovine serum and 1% penicillin/streptomycin with media renewal every 2 to 3 days. For cell flux studies, cells were grown to confluence in 12-well plates with media renewal every two days. Two hours before performing the flux experiment, the media was removed, and the cells washed twice with phosphate buffered saline solution (PBS). […] For determining background levels of radioactivity, a sodium reduced Krebs solution was made (70 mM NaCl, 25 mM NaHCO3, 4 mM KCl, 1.2 mM KH2PO4, 2.5 mM MgSO4, 70 μM CaCl2, pH 7.4) with the addition of either 100 mM D-glucose or 100 mM D-fructose to outcompete the binding sites of the specific GLUT transporters under examination. […] The vials were then placed in a Beckman™ LS 6500 multi-purpose liquid scintillation counter to be quantified. […]
as §2

[7] = increasing concentrations, MDA-MB-231
[8] = increasing concentrations, MCF-7
[9] = listed as [^14C]-labelled 6-deoxy-6-fluoro-D-fructose

OCC1(O)O[C@H](CF)[C@@H](O)[C@@H]1O (stereo partly drawn) [6-deoxy-6-fluoro-D-fructose]
Ki (MDA-MB-231 cells [1]; 25 minute incubation, MDA-MB-231, n=3): 6210 ± 2860 µM | Ki (MDA-MB-231 cells [1]; MDA-MB-231 (FIG. 7B)): 6210 ± 2860 µM | inhibition of [14C]-D-glucose transport, in words (MDA-MB-231 cells [1]; [7]): dose dependent inhibition | Ki (MCF-7 cells [2]; [14C]-D-fructose, 25 minute incubation, MCF-7, n=3): 154 ± 54 µM | inhibition of [14C]-D-fructose transport, in words (MCF-7 cells [2]; [8]): dose dependent inhibition | Ki (MDA-MB-231 cells [3]; [14C]-D-fructose, 25 minute incubation, MDA-MB-231, n=3): 330 ± 153 µM | inhibition of [14C]-D-fructose transport, in words (MDA-MB-231 cells [3]; [7]): dose dependent inhibition | Ki (MCF-7 cells [4]; 25 minute incubation, MCF-7, n=3): ~916 µM | Ki (MCF-7 cells [4]; MCF-7 (FIG. 7A)): ~916 µM | inhibition of [14C]-D-glucose transport, in words (MCF-7 cells [4]; [8]): dose dependent inhibition | stability during storage (Storage stability): not stable during prolonged storage

C=C1[C@@H](C)[C@H]2[C@H](Cc3ccccc3)NC(=O)[C@]23OC(=O)/C=C/[C@H](O)CCC[C@@H](C)C/C=C/[C@H]3[C@@H]1O [CB, cytochalasin B, reference compound]
effect on 6-deoxy-6-fluoro-D-fructose transport (MCF-7 cells [5]; 100 μM CB, [14C]-6-deoxy-6-fluoro-D-fructose, 60 minutes, MCF-7): no significant transport difference | effect on fructose transport (MCF-7 cells [2]; 100 μM CB, [14C]-D-fructose, 60 minutes, MCF-7): no significant transport difference | share of total fructose flux inhibited (GLUT2-mediated) (MCF-7 cells [2]; 100 μM CB, [14C]-D-fructose, 90 minute flux, MCF-7): about 12% | share of total fructose flux inhibited (GLUT2-mediated) (MDA-MB-231 cells [3]; 100 μM CB, [14C]-D-fructose, 90 minute flux, MDA-MB-231): approximately 30%

O=C(CO)[C@@H](O)[C@H](O)[C@H](O)CF [[^14C]-6-deoxy-6-fluoro-D-fructose]
uptake time course (MCF-7 cells [5]): Near linear uptake | uptake time course (MCF-7 cells [5]; [9]): Near linear uptake over time | increase in uptake compared to [14C]-D-fructose (MCF-7 cells [5]; MCF-7, one hour incubation, 2-way ANOVA p=0.0028): almost two-fold increase | uptake time course (MDA-MB-231 cells [6]): Near linear uptake | uptake time course (MDA-MB-231 cells [6]; [9]): Near linear uptake over time
